# Molecular target: T1, human full-length MKNK1 (Homo sapiens, UniProt Q9BUB5, T385D)
# T1 construct: GST (N); purchased Carna Biosciences 02-145; host or cells: insect cells (baculovirus expression system)
# Assay: MKNK1 kinase high ATP assay (TR-FRET)
# Format: biochemical
# Details: TR-FRET, 2 mM ATP (high ATP), 15 min preincubation with enzyme, 30 min reaction at 22° C.; read-out: MKNK1 IC50
# Method in brief: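 Full-length human MKNK1 (T385D) preincubated 15 min at 22 °C with compound in HEPES pH 7.5/MgCl2/DTT buffer; reaction with 2 mM ATP (final) and 0.06 μM biotinylated peptide (final), 30 min at 22 °C.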
# T1 sequence (Q9BUB5 1-424 isoform Q9BUB5-2 T344D): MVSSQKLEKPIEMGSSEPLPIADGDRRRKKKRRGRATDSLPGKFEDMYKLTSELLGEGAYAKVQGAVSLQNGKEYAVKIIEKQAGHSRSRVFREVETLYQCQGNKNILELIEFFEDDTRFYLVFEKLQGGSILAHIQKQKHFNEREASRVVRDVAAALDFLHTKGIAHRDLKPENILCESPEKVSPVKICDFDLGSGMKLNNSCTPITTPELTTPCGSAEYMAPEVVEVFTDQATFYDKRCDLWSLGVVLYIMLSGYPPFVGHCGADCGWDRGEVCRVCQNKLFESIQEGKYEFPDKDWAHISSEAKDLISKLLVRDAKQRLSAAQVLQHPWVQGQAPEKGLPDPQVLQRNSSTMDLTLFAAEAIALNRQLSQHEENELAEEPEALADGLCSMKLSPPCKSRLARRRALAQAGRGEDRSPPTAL
row,IC50 [nM],Compound
1,2,"Cc1cc(Nc2ncnc3sc4c(c23)CC[C@H](C(=O)N2CCC2)C4)c(=O)n2c1C(=O)NC21CS(=O)(=O)C1 [Example 67, 6-{[(7S)-7-(Azetidin-1-ylcarbonyl)-5,6,7,8-tetrahydro[1]benzothieno[2,3-d]pyrimidin-4-yl]amino}-8-methyl-2H-spiro[imidazo[1,5-a]pyridine-3,3′-thietane]-1,5-dione 1′,1′-dioxide]"
2,2.5,"Cc1cc(Nc2ncnc3sc4c(c23)CC[C@H](C(=O)N2CC(C#N)C2)C4)c(=O)n2c1C(=O)NC21CS(=O)(=O)C1 [Example 68, 1-({(7S)-4-[(8-Methyl-1′,1′-dioxido-1,5-dioxo-1,5-dihydro-2H-spiro[imidazo[1,5-a]pyridine-3,3′-thietan]-6-yl)amino]-5,6,7,8-tetrahydro[1]benzothieno[2,3-d]pyrimidin-7-yl}carbonyl)azetidine-3-carbonitrile]"
3,2,"Cc1cc(Nc2ncnc3sc4c(c23)CC[C@H](C(=O)N2CC(N(C)C)C2)C4)c(=O)n2c1C(=O)NC21CS(=O)(=O)C1 [Example 69, 6-{[(7S)-7-{[3-(Dimethylamino)azetidin-1-yl]carbonyl}-5,6,7,8-tetrahydro[1]benzothieno[2,3-d]pyrimidin-4-yl]amino}-8-methyl-2H-spiro[imidazo[1,5-a]pyridine-3,3′-thietane]-1,5-dione 1′,1′-dioxide]"
4,0.8,"Cc1cc(Nc2ncnc3sc4c(c23)CC[C@H](C(=O)N2CC[C@H](N(C)C)C2)C4)c(=O)n2c1C(=O)NC21CS(=O)(=O)C1 [Example 70, 6-{[(7S)-7-{[(3S)-3-(Dimethylamino)pyrrolidin-1-yl]carbonyl}-5,6,7,8-tetrahydro[1]benzothieno[2,3-d]pyrimidin-4-yl]amino}-8-methyl-2H-spiro[imidazo[1,5-a]pyridine-3,3′-thietane]-1,5-dione 1′,1′-dioxide]"
5,0.8,"Cc1cc(Nc2ncnc3sc4c(c23)CC[C@H](C(=O)N2CCN(C)[C@H](C)C2)C4)c(=O)n2c1C(=O)NC21CS(=O)(=O)C1 [Example 71, 6-{[(7S)-7-{[(3R)-3,4-Dimethylpiperazin-1-yl]carbonyl}-5,6,7,8-tetrahydro[1]benzothieno[2,3-d]pyrimidin-4-yl]amino}-8-methyl-2H-spiro[imidazo[1,5-a]pyridine-3,3′-thietane]-1,5-dione 1′,1′-dioxide]"

# The next lines start with the molecule.
row,Compound,IC50 [nM]
1,"Cc1cc(Nc2ncnc3sc4c(c23)CC[C@H](C(=O)N2CC[C@H](N(C)C)C2)C4)c(=O)n2c1C(=O)NC21CCC(F)(F)CC1 [Example 56, 6′-{[(7S)-7-{[(3S)-3-(Dimethylamino)pyrrolidin-1-yl]carbonyl}-5,6,7,8-tetrahydro[1]benzothieno[2,3-d]pyrimidin-4-yl]amino}-4,4-difluoro-8′-methyl-2′H-spiro[cyclohexane-1,3′-imidazo[1,5-a]pyridine]-1′,5′-dione]",2
2,"Cc1cc(Nc2ncnc3sc4c(c23)CC[C@H](C(=O)N2CCN(C)[C@H](C)C2)C4)c(=O)n2c1C(=O)NC21CCC(F)(F)CC1 [Example 57, 6′-{[(7S)-7-{[(3R)-3,4-Dimethylpiperazin-1-yl]carbonyl}-5,6,7,8-tetrahydro[1]benzothieno[2,3-d]pyrimidin-4-yl]amino}-4,4-difluoro-8′-methyl-2′H-spiro[cyclohexane-1,3′-imidazo[1,5-a]pyridine]-1′,5′-dione]",1.4
3,"Cc1cc(Nc2ncnc3sc4c(c23)CC[C@H](C(=O)N2C[C@H]3C[C@@H]2CO3)C4)c(=O)n2c1C(=O)NC21CCC(F)(F)CC1 [Example 58, 4,4-Difluoro-8′-methyl-6′-({(7S)-7-[(1R,4R)-2-oxa-5-azabicyclo[2.2.1]hept-5-ylcarbonyl]-5,6,7,8-tetrahydro[1]benzothieno[2,3-d]pyrimidin-4-yl}amino)-2′H-spiro[cyclohexane-1,3′-imidazo[1,5-a]pyridine]-1′,5′-dione]",0.5
4,"Cc1cc(Nc2ncnc3sc4c(c23)CC[C@H](C(=O)O)C4)c(=O)n2c1C(=O)N[C@]21CC[C@@](O)(C(F)(F)F)CC1 [Example 59, (7S)-4-{[(cis)-4-Hydroxy-8′-methyl-1′,5′-dioxo-4-(trifluoromethyl)-1′,5′-dihydro-2′H-spiro[cyclohexane-1,3′-imidazo[1,5-a]pyridin]-6′-yl]amino}-5,6,7,8-tetrahydro[1]benzothieno[2,3-d]pyrimidine-7-carboxylic acid]",37.9
5,"Cc1cc(Nc2ncnc3sc4c(c23)CC[C@H](C(=O)N(C)C)C4)c(=O)n2c1C(=O)N[C@]21CC[C@@](O)(C(F)(F)F)CC1 [Example 60, (7S)-4-{[(cis)-4-Hydroxy-8′-methyl-1′,5′-dioxo-4-(trifluoromethyl)-1′,5′-dihydro-2′H-spiro[cyclohexane-1,3′-imidazo[1,5-a]pyridin]-6′-yl]amino}-N,N-dimethyl-5,6,7,8-tetrahydro[1]benzothieno[2,3-d]pyrimidine-7-carboxamide]",9.5
6,"Cc1cc(Nc2ncnc3sc4c(c23)CC[C@H](C(=O)N2CCC2)C4)c(=O)n2c1C(=O)N[C@]21CC[C@@](O)(C(F)(F)F)CC1 [Example 61, (cis)-6′-{[(7S)-7-(Azetidin-1-ylcarbonyl)-5,6,7,8-tetrahydro[1]benzothieno[2,3-d]pyrimidin-4-yl]amino}-4-hydroxy-8′-methyl-4-(trifluoromethyl)-2′H-spiro[cyclohexane-1,3′-imidazo[1,5-a]pyridine]-1′,5′-dione]",8.4
7,Cc1cc(Nc2ncnc3sc4c(c23)CC[C@H](C(=O)N2CC(N(C)C)C2)C4)c(=O)n2c1C(=O)N[C@]21CC[C@@](O)(C(F)(F)F)CC1 [Example 62],6.5
8,"Cc1cc(Nc2ncnc3sc4c(c23)CC[C@H](C(=O)N2CC[C@H](N(C)C)C2)C4)c(=O)n2c1C(=O)N[C@]21CC[C@@](O)(C(F)(F)F)CC1 [Example 63, (cis)-6′-{[(7S)-7-{[(3S)-3-(Dimethylamino)pyrrolidin-1-yl]carbonyl}-5,6,7,8-tetrahydro[1]benzothieno[2,3-d]pyrimidin-4-yl]amino}-4-hydroxy-8′-methyl-4-(trifluoromethyl)-2′H-spiro[cyclohexane-1,3′-imidazo[1,5-a]pyridine]-1′,5′-dione]",1.6
9,"Cc1cc(Nc2ncnc3sc4c(c23)CC[C@H](C(=O)N2C[C@H]3C[C@@H]2CO3)C4)c(=O)n2c1C(=O)N[C@]21CC[C@@](O)(C(F)(F)F)CC1 [Example 64, (cis)-4-Hydroxy-8′-methyl-6′-({(7S)-7-[(1R,4R)-2-oxa-5-azabicyclo[2.2.1]hept-5-ylcarbonyl]-5,6,7,8-tetrahydro[1]benzothieno[2,3-d]pyrimidin-4-yl}amino)-4-(trifluoromethyl)-2′H-spiro[cyclohexane-1,3′-imidazo[1,5-a]pyridine]-1′,5′-dione]",3.8
10,"Cc1cc(Nc2ncnc3sc4c(c23)CC[C@H](C(=O)N(C)C)C4)c(=O)n2c1C(=O)NC21CS(=O)(=O)C1 [Example 66, (7S)—N,N-Dimethyl-4-[(8-methyl-1′,1′-dioxido-1,5-dioxo-1,5-dihydro-2H-spiro[imidazo[1,5-a]pyridine-3,3′-thietan]-6-yl)amino]-5,6,7,8-tetrahydro[1]benzothieno[2,3-d]pyrimidine-7-carboxamide]",3.1
